Converted amounts (≈) assume the structure as drawn.
How the values were obtained:
Type in all cases: functional
[1] = system: Pseudomonas aeruginosa; assay: Antibacterial activity against Pseudomonas aeruginosa ATCC 27853 after 24 hrs; details: ATCC 27853, 24 h
[2] = system: Enterococcus faecalis; assay: Antibacterial activity against Enterococcus faecalis after 24 hrs
[3] = system: Staphylococcus aureus; assay: Antibacterial activity against Staphylococcus aureus ATCC 29213 after 24 hrs; details: ATCC 29213, 24 h
[4] = system: Staphylococcus aureus; assay: Antibacterial activity against methicillin-resistant Staphylococcus aureus after 24 hrs
[5] = system: Escherichia coli; assay: Antibacterial activity against Escherichia coli ATCC 25922 after 24 hrs; details: ATCC 25922, 24 h
[6] = system: Pseudomonas aeruginosa; assay: Antibacterial activity against Pseudomonas aeruginosa after 24 hrs
[7] = system: Klebsiella pneumoniae; assay: Antibacterial activity against Klebsiella pneumoniae after 24 hrs
[8] = system: Staphylococcus aureus; assay: Antibacterial activity against Staphylococcus aureus ATCC 25923 after 24 hrs; details: ATCC 25923, 24 h
[9] = system: Bacillus subtilis; assay: Antibacterial activity against Bacillus subtilis
[10] = system: Escherichia coli; assay: Antibacterial activity against Escherichia coli
[11] = system: Pseudomonas aeruginosa; assay: Antibacterial activity against Pseudomonas aeruginosa
[12] = system: Staphylococcus aureus; assay: Antibacterial activity against Staphylococcus aureus
[13] = system: Candida albicans; assay: Antifungal activity against Candida albicans

| Compound | MIC [1] [µM] | MIC [2] [µM] | MIC [3] [µM] | MIC [4] [µM] | MIC [5] [µM] | MIC [6] [µM] | MIC [7] [µM] | MIC [8] [µM] | MIC [9] [µg/mL] | MIC [10] [µg/mL] | MIC [11] [µg/mL] | MIC [12] [µg/mL] | MIC [13] [µg/mL] |
| --- | --- | --- | --- | --- | --- | --- | --- | --- | --- | --- | --- | --- | --- |
| COc1cc(/C=C(\C#N)n2cc([N+](=O)[O-])nc2C)c2c(c1OCc1ccc([N+](=O)[O-])cc1)CN1CCc3cc4c(cc3C1C2)OCO4 (centres undefined) | 3 to 1020 (≈ 1.91 to 650 µg/mL) | 3 to 1020 (≈ 1.91 to 650 µg/mL) | 3 to 1020 (≈ 1.91 to 650 µg/mL) | 3 to 1020 (≈ 1.91 to 650 µg/mL) | 3 to 1020 (≈ 1.91 to 650 µg/mL) | 3 to 1020 (≈ 1.91 to 650 µg/mL) | 3 to 1020 (≈ 1.91 to 650 µg/mL) | 3 to 1020 (≈ 1.91 to 650 µg/mL) |  |  |  |  |  |
| CC(=O)N1N=C(Cn2c([N+](=O)[O-])cnc2C)OC1(C)c1ccc([N+](=O)[O-])cc1 (centres undefined) |  |  |  |  |  |  |  |  | 0.25 to 0.5 (≈ 0.644 to 1.29 µM) | 0.25 to 0.5 (≈ 0.644 to 1.29 µM) | 0.25 to 0.5 (≈ 0.644 to 1.29 µM) | 0.25 to 0.5 (≈ 0.644 to 1.29 µM) | 0.25 to 0.5 (≈ 0.644 to 1.29 µM) |
| COc1cc(/C=C(\C#N)n2cc([N+](=O)[O-])nc2C)c2c(c1OCc1ccc(Cl)cc1Cl)CN1CCc3cc4c(cc3C1C2)OCO4 (centres undefined) | 3 to 1020 (≈ 1.98 to 674 µg/mL) | 3 to 1020 (≈ 1.98 to 674 µg/mL) | 3 to 1020 (≈ 1.98 to 674 µg/mL) | 3 to 1020 (≈ 1.98 to 674 µg/mL) | 3 to 1020 (≈ 1.98 to 674 µg/mL) | 3 to 1020 (≈ 1.98 to 674 µg/mL) | 3 to 1020 (≈ 1.98 to 674 µg/mL) | 3 to 1020 (≈ 1.98 to 674 µg/mL) |  |  |  |  |  |
| CC(=O)N1N=C(Cn2c([N+](=O)[O-])cnc2C)OC1(C)c1ccc(C)cc1 (centres undefined) |  |  |  |  |  |  |  |  | 0.25 to 0.5 (≈ 0.7 to 1.4 µM) | 0.25 to 0.5 (≈ 0.7 to 1.4 µM) | 0.25 to 0.5 (≈ 0.7 to 1.4 µM) | 0.25 to 0.5 (≈ 0.7 to 1.4 µM) | 0.25 to 0.5 (≈ 0.7 to 1.4 µM) |
| COc1cc(/C=C(\C#N)n2cc([N+](=O)[O-])nc2C)c2c(c1OCCO)CN1CCc3cc4c(cc3C1C2)OCO4 (centres undefined) | 3 to 1020 (≈ 1.64 to 557 µg/mL) | 3 to 1020 (≈ 1.64 to 557 µg/mL) | 3 to 1020 (≈ 1.64 to 557 µg/mL) | 3 to 1020 (≈ 1.64 to 557 µg/mL) | 3 to 1020 (≈ 1.64 to 557 µg/mL) | 3 to 1020 (≈ 1.64 to 557 µg/mL) | 3 to 1020 (≈ 1.64 to 557 µg/mL) | 3 to 1020 (≈ 1.64 to 557 µg/mL) |  |  |  |  |  |
| CCOc1c(OC)cc(/C=C(\C#N)n2cc([N+](=O)[O-])nc2C)c2c1CN1CCc3cc4c(cc3C1C2)OCO4 (centres undefined) | 3 to 1020 (≈ 1.59 to 541 µg/mL) | 3 to 1020 (≈ 1.59 to 541 µg/mL) | 3 to 1020 (≈ 1.59 to 541 µg/mL) | 3 to 1020 (≈ 1.59 to 541 µg/mL) | 3 to 1020 (≈ 1.59 to 541 µg/mL) | 3 to 1020 (≈ 1.59 to 541 µg/mL) | 3 to 1020 (≈ 1.59 to 541 µg/mL) | 3 to 1020 (≈ 1.59 to 541 µg/mL) |  |  |  |  |  |
| COc1cc(/C=C(\C#N)n2cc([N+](=O)[O-])nc2C)c2c(c1OCC#N)CN1CCc3cc4c(cc3C1C2)OCO4 (centres undefined) | 3 to 1020 (≈ 1.62 to 552 µg/mL) | 3 to 1020 (≈ 1.62 to 552 µg/mL) | 3 to 1020 (≈ 1.62 to 552 µg/mL) | 3 to 1020 (≈ 1.62 to 552 µg/mL) | 3 to 1020 (≈ 1.62 to 552 µg/mL) | 3 to 1020 (≈ 1.62 to 552 µg/mL) | 3 to 1020 (≈ 1.62 to 552 µg/mL) | 3 to 1020 (≈ 1.62 to 552 µg/mL) |  |  |  |  |  |
| CCCCOc1c(OC)cc(/C=C(\C#N)n2cc([N+](=O)[O-])nc2C)c2c1CN1CCc3cc4c(cc3C1C2)OCO4 (centres undefined) | 3 to 1020 (≈ 1.67 to 569 µg/mL) | 3 to 1020 (≈ 1.67 to 569 µg/mL) | 3 to 1020 (≈ 1.67 to 569 µg/mL) | 3 to 1020 (≈ 1.67 to 569 µg/mL) | 3 to 1020 (≈ 1.67 to 569 µg/mL) | 3 to 1020 (≈ 1.67 to 569 µg/mL) | 3 to 1020 (≈ 1.67 to 569 µg/mL) | 3 to 1020 (≈ 1.67 to 569 µg/mL) |  |  |  |  |  |
| COc1cc(/C=C(\C#N)n2cc([N+](=O)[O-])nc2C)c2c(c1OCc1cccc(Cl)c1)CN1CCc3cc4c(cc3C1C2)OCO4 (centres undefined) | 3 to 1020 (≈ 1.88 to 639 µg/mL) | 3 to 1020 (≈ 1.88 to 639 µg/mL) | 3 to 1020 (≈ 1.88 to 639 µg/mL) | 3 to 1020 (≈ 1.88 to 639 µg/mL) | 3 to 1020 (≈ 1.88 to 639 µg/mL) | 3 to 1020 (≈ 1.88 to 639 µg/mL) | 3 to 1020 (≈ 1.88 to 639 µg/mL) | 3 to 1020 (≈ 1.88 to 639 µg/mL) |  |  |  |  |  |
| CCCCCCCCCCOc1c(OC)cc(/C=C(\C#N)n2cc([N+](=O)[O-])nc2C)c2c1CN1CCc3cc4c(cc3C1C2)OCO4 (centres undefined) | 3 to 1020 (≈ 1.93 to 655 µg/mL) | 3 to 1020 (≈ 1.93 to 655 µg/mL) | 3 to 1020 (≈ 1.93 to 655 µg/mL) | 3 to 1020 (≈ 1.93 to 655 µg/mL) | 3 to 1020 (≈ 1.93 to 655 µg/mL) | 3 to 1020 (≈ 1.93 to 655 µg/mL) | 3 to 1020 (≈ 1.93 to 655 µg/mL) | 3 to 1020 (≈ 1.93 to 655 µg/mL) |  |  |  |  |  |
| CC(=O)N1N=C(Cn2c([N+](=O)[O-])cnc2C)OC1(C)c1ccccc1 (centres undefined) |  |  |  |  |  |  |  |  | 0.25 to 0.5 (≈ 0.728 to 1.46 µM) | 0.25 to 0.5 (≈ 0.728 to 1.46 µM) | 0.25 to 0.5 (≈ 0.728 to 1.46 µM) | 0.25 to 0.5 (≈ 0.728 to 1.46 µM) | 0.25 to 0.5 (≈ 0.728 to 1.46 µM) |
| C#CCOc1c(OC)cc(/C=C(\C#N)n2cc([N+](=O)[O-])nc2C)c2c1CN1CCc3cc4c(cc3C1C2)OCO4 (centres undefined) | 3 to 1020 (≈ 1.62 to 551 µg/mL) | 3 to 1020 (≈ 1.62 to 551 µg/mL) | 3 to 1020 (≈ 1.62 to 551 µg/mL) | 3 to 1020 (≈ 1.62 to 551 µg/mL) | 3 to 1020 (≈ 1.62 to 551 µg/mL) | 3 to 1020 (≈ 1.62 to 551 µg/mL) | 3 to 1020 (≈ 1.62 to 551 µg/mL) | 3 to 1020 (≈ 1.62 to 551 µg/mL) |  |  |  |  |  |
| COc1ccc2cc3[n+](cc2c1OC)CCc1cc2c(cc1-3)OCO2 [BERBERINE] | 11 to 688 | 11 to 688 | 11 to 688 | 11 to 688 | 11 to 688 | 11 to 688 | 11 to 688 | 11 to 688 |  |  |  |  |  |
| NC[C@H]1O[C@H](O[C@H]2[C@H](O)[C@@H](O[C@H]3O[C@H](CO)[C@@H](O)[C@H](N)[C@H]3O)[C@H](N)C[C@@H]2N)[C@H](O)[C@@H](O)[C@@H]1O [KANAMYCIN] |  |  |  |  |  |  |  |  | 1.56 to 3.12 (≈ 3.22 to 6.44 µM) | 1.56 to 3.12 (≈ 3.22 to 6.44 µM) | 1.56 to 3.12 (≈ 3.22 to 6.44 µM) | 1.56 to 3.12 (≈ 3.22 to 6.44 µM) |  |
